Laboratory results: US4939177A, “Use of avarol for the control of AIDS and ARC” (Merz + Co. GmbH & Co., priority 1986, dated 1990)

Columns and labels:
[1] = tested on: Interferon gamma production by peripheral human lymphocytes; assay: Interferon-gamma production by human lymphocytes (buffy coat cells), EIA; format: cell-based
Description: It is therefore advantageous that an anti-AIDS chemotherapeutic agent is provided with the ability to induce gamma Interferon in T-lymphocytes. […] The experiments were performed in vitro, using peripheral human lymphocytes (buffy coat cells) in culture.
Buffy coat cells were prepared by centrifugation on Ficoll-Plaque gradient and washed two times. Subsequently the cells were divided and adjusted to a concentration of 5×1,000,000 cells/ml.
Levels of Interferon were defined by an Enzymeimmunoassay (EIA). Interferon gamma: 96 well flat bottom plates (Greiner, Neurtingen) were coated with a monoclonal antibody recognizing Interferon gamma. 200 μl of the supernatant sample were added per well together with Interferon gamma-peroxidase coupled (50 μl), consisting of the same antibody as used for coating. […] The enzymatic reaction is completed by a preparation containing hydrogen peroxide substrate. The reaction is stopped within 15 minutes by 100 μl of sulfuric acid per well. The amount of Interferon is defined by comparing the extinction of the test sample with a standard curve produced by known values of Interferon gamma.

lymphocyte cultures = assay: [^3 H]-dThd incorporation in lymphocyte cultures from avarol-pretreated mice; format: cell-based, mouse; conditions: pretreatment of mice; macrophage-containing and macrophage-depleted cultures
From the text: The effect of avarol on the lymphoid system was studied both in vitro and in vivo. […] The stimulatory influence of avarol on humoral immune responses is not accompanied by a change of the antibody-mediated hypersensitivity reaction, as measured by the Arthus reaction. No significant influence of avarol on the cellular immune system in vivo (rats or mice) was found, as taken from studies on delayed-type hypersensitivity reactions to sheep red blood cells and to oxazolone.

CC1=CCC[C@H]2[C@](C)(Cc3cc(O)ccc3O)[C@@H](C)CC[C@]12C [Avarol, 2-[(1R)-1,2,3,4,4a,7,8,8aα-octahydro-1β,2β,4aβ,5-tetramethyl-1-naphthylmethyl]-1,4-benzenediol]
Titer of Interferon-gamma ([1]; 0.2 μg/ml, 0 hours, untreated 2): 4 Units/ml of supernatant | Titer of Interferon-gamma ([1]; 0.2 μg/ml, 24 hours, untreated 5): 17 Units/ml of supernatant | Titer of Interferon-gamma ([1]; 0.2 μg/ml, 48 hours, untreated 3): 24 Units/ml of supernatant | Titer of Interferon-gamma ([1]; 0.2 μg/ml, 72 hours, untreated 7): 26 Units/ml of supernatant | Titer of Interferon-gamma ([1]; 0.2 μg/ml, 96 hours, untreated 4): 21 Units/ml of supernatant | Titer of Interferon-gamma ([1]; 0.5 μg/ml, 0 hours, untreated 2): 4 Units/ml of supernatant | Titer of Interferon-gamma ([1]; 0.5 μg/ml, 24 hours, untreated 5): 23 Units/ml of supernatant | Titer of Interferon-gamma ([1]; 0.5 μg/ml, 48 hours, untreated 3): 74 Units/ml of supernatant | Titer of Interferon-gamma ([1]; 0.5 μg/ml, 72 hours, untreated 7): 89 Units/ml of supernatant | Titer of Interferon-gamma ([1]; 0.5 μg/ml, 96 hours, untreated 4): 118 Units/ml of supernatant | Titer of Interferon-gamma ([1]; 1.0 μg/ml, 0 hours, untreated 2): 3 Units/ml of supernatant | Titer of Interferon-gamma ([1]; 1.0 μg/ml, 24 hours, untreated 5): 20 Units/ml of supernatant | Titer of Interferon-gamma ([1]; 1.0 μg/ml, 48 hours, untreated 3): 52 Units/ml of supernatant | Titer of Interferon-gamma ([1]; 1.0 μg/ml, 72 hours, untreated 7): 62 Units/ml of supernatant | Titer of Interferon-gamma ([1]; 1.0 μg/ml, 96 hours, untreated 4): 73 Units/ml of supernatant | optimal dose for Interferon gamma induction ([1]; in vitro): 0.5 µg/mL | [^3 H]-dThd incorporation rate, in words (lymphocyte cultures): higher [^3 H]-dThd incorporation rate
